Consider 19 molecules from patent US20250214999A1, “HETEROCYCLIC GLP-1 AGONISTS” (Gasherbrum Bio, Inc., priority 2020, published 2025).

Molecules are shown by their SMILES. pEC50: −log10 of the molar value.

GLP-1 Receptor, sequence (P43220 24-463): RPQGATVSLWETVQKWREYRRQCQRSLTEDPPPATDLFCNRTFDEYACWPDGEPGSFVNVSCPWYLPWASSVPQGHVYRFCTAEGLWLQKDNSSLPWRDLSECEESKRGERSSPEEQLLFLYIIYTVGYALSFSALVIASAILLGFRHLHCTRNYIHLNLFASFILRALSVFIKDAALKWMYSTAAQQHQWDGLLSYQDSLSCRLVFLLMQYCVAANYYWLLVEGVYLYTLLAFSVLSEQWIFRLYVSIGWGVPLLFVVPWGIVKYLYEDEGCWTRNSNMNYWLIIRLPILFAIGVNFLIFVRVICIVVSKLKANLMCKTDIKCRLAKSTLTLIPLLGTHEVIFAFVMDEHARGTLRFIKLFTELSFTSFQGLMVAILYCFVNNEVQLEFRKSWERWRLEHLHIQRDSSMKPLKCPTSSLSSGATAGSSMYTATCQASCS

In this test the target is GLP-1 Receptor (Homo sapiens (Human), UniProt P43220). The test can be described thus: GLP-1R agonist cAMP stimulation assay (HEK293/GLP1R/CRE-LUC cells). The class given is cell-based. The following applies: 30 min incubation, read-out: GLP1R cAMP Stimulation DR: EC50. The method, then:
Activation of GLP-1 receptor is known to stimulate cyclic AMP (cAMP) production in cells which indicates primary coupling to the Gαs subunit of the G protein heterotrimeric complex.
To optimize functional activity directed toward Gαs coupling, a HEK293/CRELuc cell line developed by HDB stably expressing the GLP-1 Receptor was used. 200× concentration of compound working solutions were prepared (Agilent Technologies Bravo) with 1/2 log serial dilution in 384-well Echo LDV plate (Labcyte, Cat #LP-0200). 50 nL/well 200× concentration of compound working solutions were moved to 384-well white low volume plate (Greiner, Cat #784075) using Labcyte ECHO550. 1×10^5 cells/mL HEK293/GLP1R/CRE-LUC (HD Biosciences) cell suspensions prepared with assay buffer [DPBS containing 0.5 mM IBMX (Sigma,Cat #I5879) and 0.1% BSA (GENVIEW, Cat #FA016-100 g)], 10 uL cell suspensions were added to each well of previous generated assay plate which already contains 50 nl compound at 200× concentration using ThermoFisher Multidrop Combi (1000cells/well). Seal the plate and incubate at 37° C. with 5% CO2 for 30 min.
After incubation the CAMP assay signal was generated using cAMP dynamic 2 Kit (Cisbio). 5 μL cAMP-d2 working solution was added to each well, followed with 5 μL Anti-cAMP antibody-cryptate working solution added to each well using ThermoFisher Multidrop Combi. Incubate at room temperature for 1 hour protected from light. Read the fluorescence at 665 and 615 nm with Reader PerkinElmer En Vision.
One may read the pEC50 as −log10 of the EC50, conventionally taken in molar units. Consider `O=C(O)c1ccc2nc(CN3CCC(c4cccc5c4OC[C@H](c4ccc(Cl)cc4F)O5)CC3)n(C[C@@H]3CCO3)c2n1` [Compound 104c, 2-((4-((S)-2-(4-chloro-2-fluorophenyl)-2,3-dihydrobenzo[b][1,4]dioxin-5-yl)piperidin-1-yl)methyl)-3-(((S)-oxetan-2-yl)methyl)-3H-imidazo[4,5-b]pyridine-5-carboxylic acid], for which the pEC50 was 6.70 to 7.70. Under `C[C@H]1CN(c2cccc3c2OCC(c2ccc(Cl)cc2)O3)CCN1Cc1nc2ccc(C(=O)O)nc2n1C[C@@H]1CCO1` (stereo partly drawn) [Compound 114a, 2-(((2S)-4-(2-(4-chlorophenyl)-2,3-dihydrobenzo[b][1,4]dioxin-5-yl)-2-methylpiperazin-1-yl)methyl)-3-(((S)-oxetan-2-yl)methyl)-3H-imidazo[4,5-b]pyridine-5-carboxylic acid] stands 7.70 to 9.70; under `O=C(O)c1ccc2nc(CN3CCC(c4cccc5c4OCC(c4ccccc4F)O5)CC3)n(C[C@@H]3CCO3)c2n1` (stereo partly drawn) [Compound 109a, 2-((4-(2-(2-fluorophenyl)-2,3-dihydrobenzo[b][1,4]dioxin-5-yl)piperidin-1-yl)methyl)-3-(((S)-oxetan-2-yl)methyl)-3H-imidazo[4,5-b]pyridine-5-carboxylic acid], 6.70 to 7.70. Under `O=C(O)c1ccc2nc(CN3CCC(c4cccc5c4CCN(c4ccc(Cl)cc4)C5)CC3)n(C[C@@H]3CCO3)c2n1` [Compound 126a] stands < 6.70; under `O=C(O)c1ccc2nc(CN3CCC(c4cccc5c4OC(c4ccc(Cl)cc4F)CO5)CC3)n(C[C@@H]3CCO3)c2n1` (single isomer, unassigned) [Compound 130b], ≥ 9.70; under `O=C(O)c1ccc2nc(CN3CCC(c4cccc5c4OCC(c4ccc(Cl)cc4F)N5)CC3)n(C[C@@H]3CCO3)c2n1` (stereo partly drawn) [Compound 124a, 2-((4-(3-(4-chloro-2-fluorophenyl)-3,4-dihydro-2H-benzo[b][1,4]oxazin-8-yl)piperidin-1-yl)methyl)-3-(((S)-oxetan-2-yl)methyl)-3H-imidazo[4,5-b]pyridine-5-carboxylic acid], 7.70 to 9.70. Under `N#Cc1ccc([C@@H]2COc3c(cccc3C3CCN(Cc4nc5ccc(C(=O)O)cc5n4C[C@@H]4CCO4)CC3)O2)cc1` [Compound 129a, 2-((4-((R)-2-(4-Cyanophenyl)-2,3-dihydrobenzo[b][1,4]dioxin-5-yl)piperidin-1-yl)methyl)-1-(((S)-oxetan-2-yl)methyl)-1H-benzo[d]imidazole-6-carboxylic acid] stands ≥ 9.70. Consider `O=C(O)c1ccc2nc(CN3CCC(c4cccc5c4OC[C@@H](c4ccc(Cl)cc4)O5)CC3)n(C[C@@H]3CCO3)c2n1` [Compound 111b, 2-((4-((R)-2-(4-chlorophenyl)-2,3-dihydrobenzo[b][1,4]dioxin-5-yl)piperidin-1-yl)methyl)-3-((S)-oxetan-2-ylmethyl)-3H-imidazo[4,5-b]pyridine-5-carboxylic acid], for which the pEC50 was ≥ 9.70.

Regarding `O=C(O)c1ccc2nc(CN3CCC(c4cccc5c4OC(c4ccc(Cl)cc4F)CO5)CC3)n(C[C@@H]3CCO3)c2n1` (stereo partly drawn) [Compound 130a, 2-((4-(3-(4-chloro-2-fluorophenyl)-2,3-dihydrobenzo[b][1,4]dioxin-5-yl)piperidin-1-yl)methyl)-3-(((S)-oxetan-2-yl)methyl)-3H-imidazo[4,5-b]pyridine-5-carboxylic acid], the pEC50 was ≥ 9.70. Under `O=C(O)c1ccc2nc(CN3CCC(c4cccc5c4OCC(c4ccc(Cl)cc4F)O5)CC3)n(C[C@@H]3CCO3)c2n1` (mixture of isomers) [Compound 104a, 2-((4-(2-(4-Chloro-2-fluorophenyl)-2,3-dihydrobenzo[b][1,4]dioxin-5-yl)piperidin-1-yl)methyl)-3-((S)-oxetan-2-ylmethyl)-3H-imidazo[4,5-b]pyridine-5-carboxylic acid] stands 7.70 to 9.70; under `N#Cc1ccc(C2COc3c(cccc3C3CCN(Cc4nc5ccc(C(=O)O)nc5n4C[C@@H]4CCO4)CC3)O2)cc1` (stereo partly drawn) [Compound 118a, 2-((4-(2-(4-cyanophenyl)-2,3-dihydrobenzo[b][1,4]dioxin-5-yl)piperidin-1-yl)methyl)-3-(((S)-oxetan-2-yl)methyl)-3H-imidazo[4,5-b]pyridine-5-carboxylic acid], ≥ 9.70; under `O=C(O)c1ccc2nc(CN3CCN(c4cccc5c4CCC(c4ccc(Cl)cc4F)O5)CC3)n(C[C@@H]3CCO3)c2n1` (stereo partly drawn) [Compound 123a, 2-((4-(2-(4-Chloro-2-fluorophenyl)chroman-5-yl)piperazin-1-yl)methyl)-3-((S)oxetan-2-ylmethyl)-3H-imidazo[4,5-b]pyridine-5-carboxylic acid], 6.70 to 7.70.

Turning to `O=C(O)c1ccc2nc(CN3CCC(c4cccc5c4OC(c4ccc(Cl)cc4F)CO5)CC3)n(C[C@@H]3CCO3)c2n1` (single isomer, unassigned) [Compound 130c], the pEC50 was 7.70 to 9.70. Under `Cc1ccc(C2COc3c(cccc3C3CCN(Cc4nc5ccc(C(=O)O)nc5n4C[C@@H]4CCO4)CC3)O2)cc1` (stereo partly drawn) [Compound 116a, 3-(((S)-oxetan-2-yl)methyl)-2-((4-(2-(p-tolyl)-2,3-dihydrobenzo[b][1,4]dioxin-5-yl)piperidin-1-yl)methyl)-3H-imidazo[4,5-b]pyridine-5-carboxylic acid] stands ≥ 9.70; under `O=C(O)c1ccc2nc(CN3CCC(c4cccc5c4OCC(c4ccc(F)cc4)O5)CC3)n(C[C@@H]3CCO3)c2n1` (stereo partly drawn) [Compound 117a, 2-((4-(2-(4-fluorophenyl)-2,3-dihydrobenzo[b][1,4]dioxin-5-yl)piperidin-1-yl)methyl)-3-(((S)-oxetan-2-yl)methyl)-3H-imidazo[4,5-b]pyridine-5-carboxylic acid], 7.70 to 9.70; under `O=C(O)c1ccc2nc(CN3CCC(c4cccc5c4CCC(c4ccc(Cl)cc4F)O5)CC3)n(C[C@@H]3CCO3)c2n1` (stereo partly drawn) [Compound 105a, 2-((4-(2-(4-chloro-2-fluorophenyl)chroman-5-yl)piperidin-1-yl)methyl)-3-(((S)oxetan-2-yl)methyl)-3H-imidazo[4,5-b]pyridine-5-carboxylic acid], < 6.70.

For `N#Cc1ccc([C@@H]2COc3c(cccc3C3CCN(Cc4nc5ccc(C(=O)O)nc5n4C[C@@H]4CCO4)CC3)O2)cc1` [Compound 118b, 2-((4-((R)-2-(4-cyanophenyl)-2,3-dihydrobenzo[b][1,4]dioxin-5-yl)piperidin-1-yl)methyl)-3-(((S)-oxetan-2-yl)methyl)-3H-imidazo[4,5-b]pyridine-5-carboxylic acid], the pEC50 was ≥ 9.70. Under `O=C(O)c1ccc2nc(CN3CCN(c4cccc5c4OCC(c4ccc(Cl)cc4F)C5)CC3)n(C[C@@H]3CCO3)c2n1` (stereo partly drawn) [Compound 121a, 2-((4-(3-(4-Chloro-2-fluorophenyl)chroman-8-yl)piperazin-1-yl)methyl)-3-(((S)oxetan-2-yl)methyl)-3H-imidazo[4,5-b]pyridine-5-carboxylic acid] stands 6.70 to 7.70; under `O=C(O)c1ccc2nc(CN3CCN(c4cccc5c4OCC(c4ccc(Cl)cc4F)O5)CC3)n(C[C@@H]3CCO3)c2n1` (stereo partly drawn) [Compound 108a, 2-((4-(2-(4-chloro-2-fluorophenyl)-2,3-dihydrobenzo[b][1,4]dioxin-5-yl)piperazin-1-yl)methyl)-3-((S)-oxetan-2-ylmethyl)-3H-imidazo[4,5-b]pyridine-5-carboxylic acid], 7.70 to 9.70.
